Source: article PMC9312958, “A Novel and Selective Dopamine Transporter Inhibitor, (S)-MK-26, Promotes Hippocampal Synaptic Plasticity and Restores Effort-Related Motivational Dysfunctions” (Biomolecules, 2022)

Assays:
[1] = test system: naive young (12 weeks) male rats; assay: Open field, spontaneous locomotor activity; type: in vivo, rat
Experimental: Animals were habituated to the experimental room twenty-four hours prior to the start of the experiment. The open field consisted of a black wooden board (1.20 m × 1.20 m) surrounded by white wooden walls (50 cm in height); light was adjusted to 150 lux. Each animal was placed in the middle of the open-field arena (animal experiments conducted under BMBWF-66.009/235/V/3b/2018 regulations) and behavior was recorded for 10 min. Data analysis was performed using the AnyMaze software (Stoelting Co., IL, USA). The test consisted of one habituation session on the first day and one test session on the following day. Each animal received (S)-MK-26 at 10, 20, 0 and 1 mg/kg of body weight with wash-out period of nine days between each treatment.

aged rats = assay: Hole-board test, spatial reference memory; type: in vivo, rat
Source text: In order to examine the effect of (S)-MK-26 on hippocampus-dependent spatial reference memory, we used the standardized hole-board test (animal experiments conducted under BMBWF-66.009/235/V/3b/2018 regulations) following published procedures with minor modifications. In brief, food restriction and controlled body weight loss with it (until steadily reaching 85% of the average body weight sustained during ad libitum feeding) was initially imposed for this experimental study as cognitive/behavioral incentive. A black plastic hole-board maze (1 m^2 base) with 16 symmetrically distributed holes located at the floor (7 cm in diameter and depth) and walls enriched with spatial cues was used (See Figure 4). Accessory distal cues were also visible in the walls of the experimental room. Dustless precision food pellets (45 mg, Bioserv®, Flemington, NJ, USA) were placed as motivational baits in four randomly designated holes, unchanged throughout the test. Several inaccessible pellets were also placed all across the entire area immediately below all the holes of the board maze in order to induce a uniform distribution of the food smell and thus preventing the acute orientating response of the sense of smell from prevailing over the evocation of spatial memories associated with the location of accessible food. […] The behavioral experiments were conducted in a noise-isolated room; all sessions were monitored by a distal overhead conventional digital camera and behavioral data digitalized using the ANY-Maze video tracking system (Stoelting Europe, 8-Terenure Place, Terenure, Dublin, D6W Y006, Ireland). Spatial memory performance was assessed from the number of errors made by the animal, that is, the number of times the animals visit unbaited holes (reference memory). […] Thus, from these measurements, an RMI value of “1” would constitute quantifiable indicator of optimal reference memory, with a performance without empty-hole visiting mistakes. […]

[O-][S@@+](Cc1cncs1)C(c1cccc(Cl)c1)c1cccc(Cl)c1 [(S)-MK-26, (S)-5-(((B(3-chlorophenyl)methyl)sulphinyl)methyl)thiazole]
effect on total distance travelled over 10 min ([1]; 1, 10, 20 mg/kg vs vehicle): no effect | activity (distance travelled) within the initial 5 min of the test session ([1]; highest dose (20 mg/kg), p = 0.0236): moderately increased activity | stereotypic or anxiogenic behavior ([1]; open field, 1, 10, 20 mg/kg): did not induce stereotypic or anxiogenic behavior | spatial reference memory (reference memory index) (aged rats; 10 mg/kg i.p. daily, vs Kolliphor): slight and transitory—yet statistically significant—enhancement of spatial reference memory | exploratory activity (distance travelled) during H3 habituation session (aged rats; 10 mg/kg i.p., p = 0.0053): induced an increase in ecology-like exploratory activity | number of hole dips (aged rats; 10 mg/kg i.p., vs Kolliphor): No differences
